# Experimental data from patent publication US11739101B2, “Bifunctional degraders of hematopoietic progenitor kinase and therapeutic uses thereof” (Nurix Therapeutics, Inc., priority 2020, dated 2023).
# Molecular target: T1, HPK1 (Homo sapiens, UniProt Q92918)
# T1 construct: A HiBiT tag was introduced by CRISPR on the N terminus of HPK1 in Jurkat cells; host or cells: Jurkat (ATCC TIB-152), monoclonal CRISPR HiBiT knock-in line
# Test: HPK1 Cellular HiBiT Degradation Assay
# Format: cell-based
# Conditions: HiBiT-tagged HPK1 Jurkat cells, 24 hours, 10 uM to 0.1 nM; Dmax = 100 minus lowest % HPK1 remaining vs DMSO vehicle
# Procedure: HiBiT HPK1 Jurkat cell lines were used to evaluate the total protein levels of HPK1 in a robust human cellular high throughput format. The level of HPK1 remaining following treatment with HPK1 CTMs is reported as Dmax (maximum degradation) achieved at 24 hours when compared to vehicle treated controls. […] These decreases were not a result of cytotoxicity measured by a parallel viability assessment (CTG). See also Table 1.
# A HiBiT tag was introduced by CRISPR on the N terminus of HPK1 in Jurkat cells (ATCC® TIB-152) to allow quantitation of HPK1 protein levels in a monoclonal human cell line. Cells were plated at 1×10^6 cells/mL, 30 uL/well (3×10^4 cells/well) in complete RPMI 1640 (10% heat inactivated FBS, 1% L-glutamine) in 384-well assay plates (Corning, cat. no. 3570). HPK1 chimeric targeting molecules (CTMs) were added in an 11-point dilution series (3.16-fold) with a final assay concentration range of 10 uM to 0.1 nM. The parental Jurkat cell line, with no HiBiT insertion, was included in the assay as a background control. Cells treated with a DMSO vehicle control were used to determine the maximum signal defining 100% HPK1 in the cell. Cells were incubated for 24 hours at 37° C./5% CO2. Following incubation, 30 uL of complete Nano-Glo HiBiT Lytic Detection Reagent (Promega cat. no. N3040) was added. Cells were incubated for 10 minutes at room temperature and luminescence was read on an EnVision plate reader (Perkin Elmer, 0.1 sec per well). Parallel plates were assessed for viability using Cell Titer Glo (Promega) and read on an EnVision plate reader to ensure results were not the effect of cytotoxicity. Percent HPK1 remaining per sample was calculated as follows: […]
# % HPK1 remaining values were plotted as a function of compound concentration and curves were fit using the Prism (GraphPad) equation “log(inhibitor) vs response−Variable slope (four parameters)”. Dmax values were calculated by identifying the lowest % remaining and subtracting from 100. Dmax values are provided in Table 1, wherein A>65%, 45%≤B≤65% and C<45%.
# T1 sequence (Q92918 whole entry): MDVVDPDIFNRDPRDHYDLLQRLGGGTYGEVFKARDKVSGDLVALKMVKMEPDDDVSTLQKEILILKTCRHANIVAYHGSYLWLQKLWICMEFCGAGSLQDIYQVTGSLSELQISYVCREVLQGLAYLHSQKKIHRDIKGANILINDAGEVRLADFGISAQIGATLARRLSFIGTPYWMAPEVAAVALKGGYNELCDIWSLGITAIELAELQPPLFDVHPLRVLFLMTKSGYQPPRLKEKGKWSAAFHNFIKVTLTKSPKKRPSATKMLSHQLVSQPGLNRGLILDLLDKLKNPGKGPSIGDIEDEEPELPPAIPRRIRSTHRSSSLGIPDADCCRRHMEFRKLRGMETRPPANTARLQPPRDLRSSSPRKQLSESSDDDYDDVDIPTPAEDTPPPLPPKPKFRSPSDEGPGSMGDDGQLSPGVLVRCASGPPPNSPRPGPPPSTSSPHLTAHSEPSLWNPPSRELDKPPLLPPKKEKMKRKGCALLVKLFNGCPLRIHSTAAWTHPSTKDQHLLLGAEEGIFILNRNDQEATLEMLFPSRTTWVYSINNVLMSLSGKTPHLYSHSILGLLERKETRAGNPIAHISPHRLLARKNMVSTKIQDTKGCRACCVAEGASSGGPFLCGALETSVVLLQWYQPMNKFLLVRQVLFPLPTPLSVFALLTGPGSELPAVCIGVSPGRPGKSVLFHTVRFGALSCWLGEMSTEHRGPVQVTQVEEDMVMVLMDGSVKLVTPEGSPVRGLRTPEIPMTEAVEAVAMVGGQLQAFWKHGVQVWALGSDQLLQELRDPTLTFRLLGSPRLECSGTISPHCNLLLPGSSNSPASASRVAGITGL
Structure (SMILES),Dmax,Cellular HPK1 HiBiT: Dmax (%)
"Cc1cc(F)c(Nc2nc(-c3ccc4c(c3)N([C@H]3C[C@@H](N5CCCCC5)C3)C(=O)C43CCN(C(=O)c4ccn(C5CCN(Cc6cccc7c6C(=O)N(C6CCC(=O)NC6=O)C7=O)CC5)n4)CC3)cc3ncn(C(C)C)c23)cc1C(=O)NC(C)C (some centres unmarked) [Example 65, 5-{[6-(1′-{1-[1-({2-[2,6-dioxopiperidin-3-yl]-1,3-dioxo-2,3-dihydro-1H-isoindol-4-yl}methyl)piperidin-4-yl]-1H-pyrazole-3-carbonyl}-2-oxo-1-[(1s,3s)-3-(piperidin-1-yl)cyclobutyl]-1,2-dihydrospiro[indole-3,4′-piperidin]-6-yl)-3-(propan-2-yl)-3H-imidazo[4,5-c]pyridin-4-yl]amino}-4-fluoro-2-methyl-N-(propan-2-yl)benzamide]",45 to 65%,
"CC(=O)N1CCC2(CC1)C(=O)N([C@H]1C[C@@H](N3CCC[C@@H](C(=O)NCCCCCCCCCNc4ccc5c(c4)C(=O)N(C4CCC(=O)NC4=O)C5=O)C3)C1)c1cc(-c3cc4ncn(C(C)C)c4c(Nc4cc(C(=O)NC(C)C)c(C)cc4F)n3)ccc12 (stereo partly drawn) [Example 15, (3R)-1-((1s,3s)-3-(1′-acetyl-6-(4-((2-fluoro-5-(isopropylcarbamoyl)-4-methylphenyl)amino)-3-isopropyl-3H-imidazo[4,5-c]pyridin-6-yl)-2-oxospiro[indoline-3,4′-piperidin]-1-yl)cyclobutyl)-N-(9-((2-(2,6-dioxopiperidin-3-yl)-1,3-dioxoisoindolin-5-yl)amino)nonyl)piperidine-3-carboxamide]",< 45%,
"Cc1cc(F)c(Nc2nc(-c3ccc4c(c3)N([C@H]3C[C@@H](N5CCCCC5)C3)C(=O)C43CCN(C(=O)c4ccc(C5CCN(CC(=O)NCCNc6cccc7c6C(=O)N(C6CCC(=O)NC6=O)C7=O)CC5)cc4)CC3)cc3ncn(C(C)C)c23)cc1C(=O)NC(C)C (some centres unmarked) [Example 88, 5-[(6-{1′-[4-(1-{[(2-{[2-(2,6-dioxopiperidin-3-yl)-1,3-dioxoisoindol-4-yl]amino}ethyl)carbamoyl]methyl}piperidin-4-yl)benzoyl]-2-oxo-1-[(1s,3s)-3-(piperidin-1-yl)cyclobutyl]spiro[indole-3,4′-piperidin]-6-yl}-3-isopropylimidazo[4,5-c]pyridin-4-yl)amino]-4-fluoro-N-isopropyl-2-methylbenzamide]",> 65%,
"Cc1cc(F)c(Nc2nc(-c3ccc4c(c3)N([C@H]3C[C@@H](N5CCCCC5)C3)C(=O)C43CCN(C(=O)CN4CCC(CCCCC(=O)N[C@H](C(=O)N5C[C@H](O)C[C@H]5C(=O)N[C@@H](C)c5ccc(-c6scnc6C)cc5)C(C)(C)C)CC4)CC3)cc3ncn(C(C)C)c23)cc1C(=O)NC(C)C [Example 19, (2S,4R)-1-((S)-2-(5-(1-(2-(6-(4-((2-fluoro-5-(isopropylcarbamoyl)-4-methylphenyl)amino)-3-isopropyl-3H-imidazo[4,5-c]pyridin-6-yl)-2-oxo-1-((1s,3s)-3-(piperidin-1-yl)cyclobutyl)spiro[indoline-3,4′-piperidin]-1′-yl)-2-oxoethyl)piperidin-4-yl)pentanamido)-3,3-dimethylbutanoyl)-4-hydroxy-N—((S)-1-(4-(4-methylthiazol-5-yl)phenyl)ethyl)pyrrolidine-2-carboxamide]",< 45%,
"Cc1cc(F)c(Nc2nc(-c3ccc4c(c3)N([C@H]3C[C@@H](N5CCCCC5)C3)C(=O)C43CCN(C(=O)CN4CCC5(CC4)CC(C(=O)NCCNc4cccc6c4C(=O)N(C4CCC(=O)NC4=O)C6=O)C5)CC3)cc3ncn(C(C)C)c23)cc1C(=O)NC(C)C (some centres unmarked) [Example 46, N-(2-((2-(2,6-dioxopiperidin-3-yl)-1,3-dioxoisoindolin-4-yl)amino)ethyl)-7-(2-(6-(4-((2-fluoro-5-(isopropylcarbamoyl)-4-methylphenyl)amino)-3-isopropyl-3H-imidazo[4,5-c]pyridin-6-yl)-2-oxo-1-((1s,3s)-3-(piperidin-1-yl)cyclobutyl)spiro[indoline-3,4′-piperidin]-1′-yl)-2-oxoethyl)-7-azaspiro[3.5]nonane-2-carboxamide]",45 to 65%,
"Cc1cc(F)c(Nc2nc(-c3ccc4c(c3)N([C@H]3C[C@@H](N5CCCCC5)C3)C(=O)C43CCN(C(=O)C4CN(C(=O)CC5CCN(c6cccc7c6C(=O)N(C6CCC(=O)NC6=O)C7=O)CC5)C4)CC3)cc3ncn(C(C)C)c23)cc1C(=O)NC(C)C (some centres unmarked) [Example 34, 5-{[6-(1′-{1-[2-(1-{2-[2,6-dioxopiperidin-3-yl]-1,3-dioxo-2,3-dihydro-1H-isoindol-4-yl}piperidin-4-yl)acetyl]azetidine-3-carbonyl}-2-oxo-1-[(1s,3s)-3-(piperidin-1-yl)cyclobutyl]-1,2-dihydrospiro[indole-3,4′-piperidin]-6-yl)-3-(propan-2-yl)-3H-imidazo[4,5-c]pyridin-4-yl]amino}-4-fluoro-2-methyl-N-(propan-2-yl)benzamide]",< 45%,
"Cc1cc(F)c(Nc2nc(-c3ccc4c(c3)N([C@H]3C[C@@H](N5CCCCC5)C3)C(=O)C43CCN(C(=O)c4cccc(C5CCN(c6cccc7c6C(=O)N(C6CCC(=O)NC6=O)C7=O)CC5)c4)CC3)cc3ncn(C(C)C)c23)cc1C(=O)NC(C)C (some centres unmarked) [Example 53, 5-[(6-{1′-[3-(1-{2-[2,6-dioxopiperidin-3-yl]-1,3-dioxo-2,3-dihydro-1H-isoindol-4-yl}piperidin-4-yl)benzoyl]-2-oxo-1-[(1s,3s)-3-(piperidin-1-yl)cyclobutyl]-1,2-dihydrospiro[indole-3,4′-piperidin]-6-yl}-3-(propan-2-yl)-3H-imidazo[4,5-c]pyridin-4-yl)amino]-4-fluoro-2-methyl-N-(propan-2-yl)benzamide]",,B (45%≤B≤65%)

# Continued, in another order:
Dmax,Structure (SMILES),Cellular HPK1 HiBiT: Dmax (%)
45 to 65%,"Cc1cc(F)c(Nc2nc(-c3ccc4c(c3)N([C@H]3C[C@@H](N5CCCCC5)C3)C(=O)C43CCN(C(=O)[C@@H]4CCN(C(=O)N5CCC(Nc6cccc7c6C(=O)N(C6CCC(=O)NC6=O)C7=O)CC5)C4)CC3)cc3ncn(C(C)C)c23)cc1C(=O)NC(C)C (stereo partly drawn) [Example 69, 5-[(6-{1′-[(3R)-1-[4-({2-[2,6-dioxopiperidin-3-yl]-1,3-dioxo-2,3-dihydro-1H-isoindol-4-yl}amino)piperidine-1-carbonyl]pyrrolidine-3-carbonyl]-2-oxo-1-[(1S,3s)-3-(piperidin-1-yl)cyclobutyl]-1,2-dihydrospiro[indole-3,4′-piperidin]-6-yl}-3-(propan-2-yl)-3H-imidazo[4,5-c]pyridin-4-yl)amino]-4-fluoro-2-methyl-N-(propan-2-yl)benzamide]",
< 45%,"Cc1cc(F)c(Nc2nc(-c3ccc4c(c3)N([C@H]3C[C@@H](N5CCCCC5)C3)C(=O)C43CCN(C(=O)C4CN(C(=O)C5CCN(c6ccc7c(c6)C(=O)N(C6CCC(=O)NC6=O)C7=O)CC5)C4)CC3)cc3ncn(C(C)C)c23)cc1C(=O)NC(C)C (some centres unmarked) [Example 39, 5-[(6-{1′-[1-(1-{2-[2,6-dioxopiperidin-3-yl]-1,3-dioxo-2,3-dihydro-1H-isoindol-5-yl}piperidine-4-carbonyl)azetidine-3-carbonyl]-2-oxo-1-[(1s,3s)-3-(piperidin-1-yl)cyclobutyl]-1,2-dihydrospiro[indole-3,4′-piperidin]-6-yl}-3-(propan-2-yl)-3H-imidazo[4,5-c]pyridin-4-yl)amino]-4-fluoro-2-methyl-N-(propan-2-yl)benzamide]",
> 65%,"Cc1cc(F)c(Nc2nc(-c3ccc4c(c3)N([C@H]3C[C@@H](N5CCCCC5)C3)C(=O)C43CCN(C(=O)C4CCN(C(=O)[C@H]5CC[C@H](Nc6cccc7c6C(=O)N(C6CCC(=O)NC6=O)C7=O)CC5)CC4)CC3)cc3ncn(C(C)C)c23)cc1C(=O)NC(C)C (stereo partly drawn) [Example 60, 4-fluoro-2-methyl-5-{[6-(2-oxo-1′-{1-[(1R,4R)-4-({2-[2,6-dioxopiperidin-3-yl]-1,3-dioxo-2,3-dihydro-1H-isoindol-4-yl}amino)cyclohexanecarbonyl]piperidine-4-carbonyl}-1-[(1s,3s)-3-(piperidin-1-yl)cyclobutyl]-1,2-dihydrospiro[indole-3,4′-piperidin]-6-yl)-3-(propan-2-yl)-3H-imidazo[4,5-c]pyridin-4-yl]amino}-N-(propan-2-yl)benzamide]",
< 45%,"Cc1cc(F)c(Nc2nc(-c3ccc4c(c3)N([C@H]3C[C@@H](N5CCCCC5)C3)C(=O)C43CCN(C(=O)C4CCN(C(=O)[C@H]5CC[C@@H](Nc6cccc7c6C(=O)N(C6CCC(=O)NC6=O)C7=O)CC5)C4)CC3)cc3ncn(C(C)C)c23)cc1C(=O)NC(C)C (stereo partly drawn) [Example 27, 4-fluoro-2-methyl-5-[(6-{2-oxo-1-[(1s,3s)-3-(piperidin-1-yl)cyclobutyl]-1′-[1-[(1S,4S)-4-({2-[2,6-dioxopiperidin-3-yl]-1,3-dioxo-2,3-dihydro-1H-isoindol-4-yl}amino)cyclohexanecarbonyl]pyrrolidine-3-carbonyl]-1,2-dihydrospiro[indole-3,4′-piperidin]-6-yl}-3-(propan-2-yl)-3H-imidazo[4,5-c]pyridin-4-yl)amino]-N-(propan-2-yl)benzamide]",
